In publication PMC5845537 (Frontiers in Pharmacology, 2018):
Read-outs that look alike come from different tables or passages of the source.

Tests used:
rodent 5-HT1A receptors = conditions: rodent vs human; no reference given; cited from earlier work
5-HT7 receptors = conditions: 2014, cited from earlier work
5-HT1B receptors = conditions: 2014, cited from earlier work
5-HT3 receptor = 5-HT3 receptor occupancy (literature); format: in vivo, rat; conditions: 0.22 g/kg subchronic dose; estimated based on known SERT:5-HT3 receptor occupancy relationships; ref Leiser et al., 2014
5-HT1A receptors = conditions: 2014, cited from earlier work
rodent 5-HT7 receptors = conditions: rodent vs human; no reference given; cited from earlier work
SERT = conditions: cited from earlier work
[1] = 10 mg/kg 1 h s.c., ref Leiser et al.
[2] = subchronic dose used in the mouse OR and object placement tasks, expected, ref Wallace et al., Waller et al., 2017

occupancy at 5-HT3 receptors (5-HT3 receptor): full occupancy
Structure (SMILES): Cc1ccc(Sc2ccccc2N2CCNCC2)c(C)c1 [vortioxetine]
lesser affinity at rodent 5-HT1A receptors by comparison to humans (rodent 5-HT1A receptors): approximately 10 fold | occupancy at 5-HT7 receptors (5-HT7 receptors; [1]): ≈ 40% | occupancy at 5-HT7 receptors (5-HT7 receptors; [2]): negligible | occupancy at 5-HT1B receptors (5-HT1B receptors; 10 mg/kg 1 h s.c., full occupancy, ref Leiser et al.): ≥ 80% | occupancy at 5-HT1B receptors (5-HT1B receptors; subchronic dose used in the mouse OR and object placement tasks, ref Wallace et al., Waller et al., 2017): approximately 50% | occupancy at 5-HT1A receptors (5-HT1A receptors; [1]): ≈ 40% | occupancy at 5-HT1A receptors (5-HT1A receptors; [2]): negligible | lesser affinity at rodent 5-HT7 receptors by comparison to humans (rodent 5-HT7 receptors): approximately 10 fold | occupancy at the SERT (SERT; 1 mg/kg acute dose, ref Leiser et al., 2014): 60–65% | occupancy at SERT (SERT; 10 mg/kg 1 h s.c., full occupancy, ref Leiser et al., 2014): ≥ 80% | occupancy at the SERT (SERT; 0.22 g/kg subchronic dose (food), ref Waller et al., 2017): approximately 50% | occupancy at SERT (SERT; subchronic dose used in the mouse OR and object placement tasks, ref Wallace et al., 2014, Waller et al., 2017): full occupancy | SERT occupancy (SERT; the vortioxetine doses used, ref Stenkrona et al., 2013, Leiser et al., 2014): 50–90%
